Measurements as given in patent US3997506A (priority 1974, dated 1976).
Several values for one entry are separate records, joined by “and”; a condition that tells them apart may be missing. Equal values may be shown once. Read-outs that look alike come from different tables or passages of the source.

Columns and labels:
[1] = system: phagocytosis by peritoneal macrophages of mice; assay type: cell-based; conditions: for % phagocytosis with respect to controls (= 100%): 80 min
[2] = system: oedema produced by crystals of urate in the hind paw of the rat; assay type: in vivo, Sprague Dawely female rats
leucocytes from rats [3] = assay type: in vivo, Sprague Dawley SIV 50 he-rats; conditions: 2 mg/kg oral
[4] = system: Sprague Dawley SIV 50 rat; assay type: in vivo, male and female Sprague Dawley SIV 50 rat
Source text: The high toxicity of the new derivative of colchicine (N-desacetyl-N-adamantoyl-thiocolchicine) has been investigated through the oral way with the male and female Sprague Dawley SIV 50 rat having an average weight of 100 g.
Two experiments have been carried out. In the first one, only the high toxicity of the derivative has been studied; in the second one, the high toxicity of the derivative has been compared with that of colchicine.
The derivative and colchicine have been administered in suspension in propylene glycol through an oesophageal tube at the rate of 2 ml per rat for the first experiment and of 1 ml for the second one.
The animals have been observed for 10 days.

in vitro = assay type: cell-based, human; conditions: human, leucocytes, read-out: % of dead cells
Description: (§1) The cytotoxicity has been investigated on human leucocytes by means of the viability test with Trypan blue.
(§2) a. In a first experimentation cultures of leucocytes of a voluntary […] were prepared and caused to undergo incubation with phytohemagglutinin (PHA) and with different concentrations of colchicine or of its derivative (C1 = 2.5 μg/ml of culture, C3 = 10 μg/ml, C5 = 30 μg/ml, C6 = 50 μg/ml). Leucocytes only containing PHA served as controls.
(§3) After 3, 42, 68 and 72 hours of incubation a sample of each culture was contacted by a drop of Trypan blue and laid on a slide of a microscope. Then took place the counting of the dead cells (those with assumed an […] colour) and of all the cells present on the slide in order to obtain the ratio of the number of dead cells to the total number of cells. The results expressed as a rate in per cent are shown in the accompanying table 8.
(§4) b. After the experimentation which has just been described, the study of cytotoxicity has been continued with two other samples of human leucocytes still by means of the viability test with Trypan blue.
(§5) C1 = 2.5 μg/ml of culture
(§6) C6 = 50 μg/ml of culture;
(§7) and for the carboxy-1-adamantane fraction to:
(§8) C3 = 4.5 μg/ml of culture
(§9) C6 = 22.5 μg/ml of culture.
(§10) Leucocytes only containing phytohemagglutinin and others containing phytohemagglutinin and 50 μl of methanol served as controls.
(§11) The percentage of dead cells was determined after different numbers of hours of incubation.

human leucocytes [5] = assay: in vitro; assay type: cell-based
Description: as §1, §2, §3, §4, §5, §6, §7, §8, §9, §10, §11

human leucocytes [6] = conditions: 0.01 μg/ml to 10 μg/ml; up to 30 hours; no PHA
leucocytes from rats [7] = conditions: individual rat, 2 mg/kg oral
leucocytes from rats [8] = conditions: 6 hours after administration, 2 mg/kg oral
[9] = 2 mg/kg, three subcutaneous injections, 6 h after urate
[10] = first experimentation, C1 = 2.5 μg/ml
[11] = first experimentation, C3 = 10 μg/ml
[12] = first experimentation, C5 = 30 μg/ml
[13] = first experimentation, C6 = 50 μg/ml
[14] = 6 hours after administration, 2 mg/kg

In the case of COc1cc2c(c(OC)c1OC)-c1ccc(OC)c(=O)cc1[C@@H](NC(C)=O)CC2 [Colchicine, colchicine, reference compound], the inhibition of phagocytosis ([1]; 0.004 μg) is reported as 15%, the “% phagocytosis with respect to controls (= 100%)” value (from here on “% phagocytosis”) ([1]; 0.004 μg, Experimentation III) is reported as 87.6% and the “% phagocytosis” value ([1]; 0.004 μg, Experimentation IV) is reported as 81.6%. The “% phagocytosis” value ([1]; 0.04 μg, Experimentation III) was 65%, the “% phagocytosis” value ([1]; 0.04 μg, Experimentation IV) was 78.9% and the “% phagocytosis” value ([1]; 0.04 μg, Experimentation V) was 79.5%. The “% phagocytosis” value ([1]; 0.4 μg, Experimentation III) was 44.7%, the “% phagocytosis” value ([1]; 0.4 μg, Experimentation IV) was 54.3% and the “% phagocytosis” value ([1]; 0.4 μg, Experimentation V) was 54.4%. The inhibition of phagocytosis ([1]; 4 μg) was 65%, the “% phagocytosis” value ([1]; 4 μg, Experimentation II) was 36.9% and the “% phagocytosis” value ([1]; 4 μg, Experimentation III) was 34.5%. The “% phagocytosis” value ([1]; 4 μg, Experimentation IV) was 32.2%, the “% phagocytosis” value ([1]; 4 μg, Experimentation V) was 38.2% and the “% phagocytosis” value ([1]; 5 μg, Experimentation II) was 30.3%. The “% phagocytosis” value ([1]; 10 μg, Experimentation II) was 33.7%, the “% phagocytosis” value ([1]; 12.5 μg, Experimentation I) was 36.5% and the “% phagocytosis” value ([1]; 20 μg, Experimentation II) was 33.4%. For the same compound, the “% phagocytosis” value ([1]; 30 μg, Experimentation II) was 36.2%, the inhibition of phagocytosis ([1]; 40 μg) was 67% and the “% phagocytosis” value ([1]; 40 μg, Experimentation II) was 32.0%. The “% phagocytosis” value ([1]; 40 μg, Experimentation III) was 33.2%, the “% phagocytosis” value ([1]; 40 μg, Experimentation IV) was 33.8% and the “% of inhibition of edema” value [2, 9] was 48%. For the same compound, the “Difference in weight between left and right leg (Average ± standard deviation of mean term)” value [2, 9] was 0.152 ± 0.019 g, the “protection against the oedema produced by crystals of urate (in words)” value ([2]; colchicine 2 mg/kg, derivative 6 mg/kg) was “significant protection” and the “cpm / number of lymphocytes, mean” value (leucocytes from rats [3]; 6 hours after administration, group mean, factor and spread printed on following lines) was 2.72 × 10^-^2 cpm/number of lymphoc. For the same compound, the Number of lymphocytes/culture (leucocytes from rats [3]; 6 hours after administration, individual rat, 2 mg/kg) was 148,200 lymphocytes/culture and 108,240 lymphocytes/culture, the “cpm / number of lymphocytes (immunity response)” value (leucocytes from rats [3]; 6 hours after administration, individual rat, factor × 10^-^2, 2 mg/kg) was 5.03 × 10^-^2 cpm/number of lymphoc and 0.40 × 10^-^2 cpm/number of lymphoc and the Number of lymphocytes/culture (leucocytes from rats [3]; before administration, individual rat, 2 mg/kg) was 103,960 lymphocytes/culture and 163,400 lymphocytes/culture and 156,400 lymphocytes/culture. The “rats dead after 24 hours” value ([4]; 100 mg/kg oral) was 1 rat, the “rats dead after 48 hours” value ([4]; 100 mg/kg oral) was 5 rats and the “rats dead after 24 hours” value ([4]; 500 mg/kg oral) was 5 rats. For the same compound, the “rats dead after 48 hours” value ([4]; 500 mg/kg oral) was 1 rat, the cytotoxicity at 4 h (in vitro; Culture I, C3 = 10 μg/ml) was 6% and the cytotoxicity at 4 h (in vitro; Culture I, C6 = 50 μg/ml) was 9%. The cytotoxicity at 22 h (in vitro; Culture I, C3 = 10 μg/ml) was 5%, the cytotoxicity at 22 h (in vitro; Culture I, C6 = 50 μg/ml) was 7% and the cytotoxicity at 46 h (in vitro; Culture I, C3 = 10 μg/ml) was 24%. The cytotoxicity at 46 h (in vitro; Culture I, C6 = 50 μg/ml) was 19%, the cytotoxicity at 76 h (in vitro; Culture I, C3 = 10 μg/ml) was 24% and the cytotoxicity at 76 h (in vitro; Culture I, C6 = 50 μg/ml) was 23%. For the same compound, the cytotoxicity at 23 h (in vitro; Culture II, C1 = 2.5 μg/ml) was 3%, the cytotoxicity at 23 h (in vitro; Culture II, C3 = 10 μg/ml) was 4% and the cytotoxicity at 23 h (in vitro; Culture II, C5 = 30 μg/ml) was 5%. It also gave a cytotoxicity at 46 h (in vitro; Culture II, C1 = 2.5 μg/ml) of 11%, a cytotoxicity at 46 h (in vitro; Culture II, C3 = 10 μg/ml) of 8% and a cytotoxicity at 46 h (in vitro; Culture II, C5 = 30 μg/ml) of 11%. For the same compound, the cytotoxicity at 72 h (in vitro; Culture II, C1 = 2.5 μg/ml) was 13%, the cytotoxicity at 72 h (in vitro; Culture II, C3 = 10 μg/ml) was 14% and the cytotoxicity at 72 h (in vitro; Culture II, C5 = 30 μg/ml) was 18%. The cytotoxicity at 3 h (in vitro; [10]) was 1%, the cytotoxicity at 3 h (in vitro; [11]) was 1% and the cytotoxicity at 3 h (in vitro; [12]) was 0%. For the same compound, the cytotoxicity at 3 h (in vitro; [13]) was 0%, the cytotoxicity at 42 h (in vitro; [10]) was 3% and the cytotoxicity at 42 h (in vitro; [11]) was 2%. For the same compound, the cytotoxicity at 42 h (in vitro; [12]) was 10%, the cytotoxicity at 42 h (in vitro; [13]) was 2% and the cytotoxicity at 68 h (in vitro; [10]) was 6%. It also gave a cytotoxicity at 68 h (in vitro; [11]) of 9%, a cytotoxicity at 68 h (in vitro; [12]) of 9% and a cytotoxicity at 68 h (in vitro; [13]) of 21%. The cytotoxicity at 72 h (in vitro; [10]) was 7%, the cytotoxicity at 72 h (in vitro; [12]) was 18% and the cytotoxicity at 72 h (in vitro; [13]) was 24%. For the same compound, the “cytotoxicity, cultures I and II (in words)” value (human leucocytes [5]; Cultures I and II) was “practically identical with that due to the methanol”, the “cytotoxicity, colchicine versus derivative (in words)” value (human leucocytes [5]; [10]) was “substantially the same” and the “cytotoxicity (in words)” value (human leucocytes [6]) was “no cytotoxicity is detectable”. The Basophils (leucocytes from rats [7]; 6 hours after administration) was 0, the Eosinophils (leucocytes from rats [7]; 6 hours after administration) was 0 and the Lymphocytes (leucocytes from rats [7]; [14]) was 92 and 81 and 84. For the same compound, the “Neutrophils with non-segmented nucleus” value (leucocytes from rats [7]; [14]) was 1 and 3, the “Neutrophils with segmented nucleus” value (leucocytes from rats [7]; [14]) was 6 and 16 and 17 and the Basophils (leucocytes from rats [7]; before administration) was 0. For the same compound, the Monocytes (leucocytes from rats [7]; before administration) was 2, the Lymphocytes (leucocytes from rats [7]; before administration, 2 mg/kg) was 94 and 83 and 87 and the “cytotoxic effect (in words)” value (leucocytes from rats [8]) was “no cytotoxic effect has been noticed”. The “% of dead cells” value (leucocytes from rats [8]; individual rat, 2 mg/kg, 360 min) was 1% and 2% and 0%.
